Reference: patent publication US8802597B2, “Herbicidal pyrimidines” (E I du Pont de Nemours and Company, priority 2003, dated 2014)
Like-named read-outs stand apart in the source and are kept apart here.

What was measured:
Experiment in all cases: Test C pre/postemergence
Format in all cases: in vivo
[1] = tested on: soybean (Glycine max); details: Glycine max; for plant injury at 62 g/ha: 62 g ai/ha; for plant injury at 125 g/ha: 125 g ai/ha; for plant injury at 250 g/ha: 250 g ai/ha; for plant injury at 31 g/ha: 31 g ai/ha
Excerpt: (§1) Seeds or nutlets of plant species selected from bermudagrass (Cynodon dactylon), Surinam grass (Brachiaria decumbens), cocklebur (Xanthium strumarium), corn (Zea mays), crabgrass (Digitaria sanguinalis), woolly cupgrass (Eriochloa villosa), giant foxtail (Setaria faberii), goosegrass (Eleusine indica), johnsongrass (Sorghum halepense), kochia (Kochia scoparia), lambsquarters (Chenopodium album), morningglory (Ipomoea coccinea), eastern black nightshade (Solanum ptycanthum), yellow nutsedge (Cyperus esculentus), pigweed (Amaranthus retroflexus), common ragweed (Ambrosia elatior), soybean (Glycine max), common (oilseed) sunflower (Helianthus annuus), and velvetleaf (Abutilon theophrasti) were planted and treated preemergence with test chemicals formulated in a non-phytotoxic solvent mixture which included a surfactant.
(§2) At the same time, plants selected from these crop and weed species and also winter barley (Hordeum vulgare), blackgrass (Alopecurus myosuroides), canarygrass (Phalaris minor), chickweed (Stellaria media), downy brome (Bromus tectorum), green foxtail (Setaria viridis), Italian ryegrass (Lolium multiflorum), wheat (Triticum aestivum), wild oat (Avena fatua) and windgrass (Apera spica-venti) were treated with postemergence applications of some of the test chemicals formulated in the same manner. Plants ranged in height from 2 to 18 cm (1- to 4-leaf stage) for postemergence treatments. Plant species in the flooded paddy test consisted of rice (Oryza sativa), umbrella sedge (Cyperus difformis), duck salad (Heteranthera limosa) and barnyardgrass (Echinochloa crus-galli) grown to the 2-leaf stage for testing. Treated plants and controls were maintained in a greenhouse for 12 to 14 days, after which time all species were compared to controls and visually evaluated. Plant response ratings, summarized in Table C, are based on a scale of 0 to 100 where 0 is no effect and 100 is complete control. A dash (-) response means no test result.

[2] = tested on: giant foxtail (Setaria faberii); details: Setaria faberi; for pest or weed control at 125 g/ha: 125 g ai/ha; for pest or weed control at 62 g/ha: 62 g ai/ha; for pest or weed control at 250 g/ha: 250 g ai/ha; for pest or weed control at 31 g/ha: 31 g ai/ha
Excerpt: as §1, §2

[3] = tested on: johnsongrass (Sorghum halepense); details: Sorghum halepense; for pest or weed control at 62 g/ha: 62 g ai/ha; for pest or weed control at 125 g/ha: 125 g ai/ha; for pest or weed control at 250 g/ha: 250 g ai/ha; for pest or weed control at 31 g/ha: 31 g ai/ha
Excerpt: as §1, §2

[4] = tested on: bermudagrass (Cynodon dactylon); details: Cynodon dactylon; for pest or weed control at 62 g/ha: 62 g ai/ha; for pest or weed control at 125 g/ha: 125 g ai/ha; for pest or weed control at 250 g/ha: 250 g ai/ha; for pest or weed control at 31 g/ha: 31 g ai/ha
Excerpt: as §1, §2

[5] = post-emergence, Postemergence, scale 0 to 100 (0 no effect, 100 complete control), read-out: Soybean plant response rating
[6] = post-emergence, Postemergence, scale 0 to 100, read-out: Plant response rating, Soybean
[7] = post-emergence, Postemergence, scale 0 to 100 (0 no effect, 100 complete control), read-out: Foxtail, Giant plant response rating
[8] = post-emergence, Postemergence, scale 0 to 100, read-out: Plant response rating, Foxtail, Giant
[9] = post-emergence, Postemergence, scale 0 to 100 (0 no effect, 100 complete control), read-out: Johnsongrass plant response rating
[10] = post-emergence, Postemergence, scale 0 to 100, read-out: Plant response rating, Johnsongrass
[11] = post-emergence, Postemergence, scale 0 to 100 (0 no effect, 100 complete control), read-out: Bermudagrass plant response rating
[12] = post-emergence, Postemergence, scale 0 to 100, read-out: Plant response rating, Bermudagrass
[13] = pre-emergence, Preemergence, scale 0 to 100, 0 no effect, 100 complete control, read-out: Plant response rating, Soybean
[14] = pre-emergence, Preemergence, scale 0 to 100, read-out: Plant response rating, Soybean
[15] = pre-emergence, Preemergence, scale 0 to 100, 0 no effect, 100 complete control, read-out: Plant response rating, Foxtail, Giant
[16] = pre-emergence, Preemergence, scale 0 to 100, read-out: Plant response rating, Foxtail, Giant
[17] = pre-emergence, Preemergence, scale 0 to 100, 0 no effect, 100 complete control, read-out: Plant response rating, Johnsongrass
[18] = pre-emergence, Preemergence, scale 0 to 100, read-out: Plant response rating, Johnsongrass
[19] = pre-emergence, Preemergence, scale 0 to 100, 0 no effect, 100 complete control, read-out: Plant response rating, Bermudagrass
[20] = pre-emergence, Preemergence, scale 0 to 100, read-out: Plant response rating, Bermudagrass

For `COC(=O)c1nc(C2CC2)nc(N)c1I` [Compound 7], the plant injury at 62 g/ha [1, 5] was 25%, the plant injury at 125 g/ha [1, 5] was 25% and the plant injury at 250 g/ha [1, 6] was 35%. For the same compound, the plant injury at 500 g/ha ([1]; post-emergence, Postemergence, 500 g ai/ha, scale 0 to 100, read-out: Plant response rating, Soybean) was 60%, the pest or weed control at 125 g/ha [2, 7] was 0% and the pest or weed control at 500 g/ha ([2]; post-emergence, Postemergence, 500 g ai/ha, scale 0 to 100, read-out: Plant response rating, Foxtail, Giant) was 10%. The pest or weed control at 62 g/ha [2, 7] was 0%, the pest or weed control at 250 g/ha [2, 8] was 0% and the pest or weed control at 62 g/ha [3, 9] was 0%. It also gave a pest or weed control at 125 g/ha [3, 9] of 0%, a pest or weed control at 250 g/ha [3, 10] of 0% and a pest or weed control at 500 g/ha ([3]; post-emergence, Postemergence, 500 g ai/ha, scale 0 to 100, read-out: Plant response rating, Johnsongrass) of 0%. For the same compound, the pest or weed control at 62 g/ha [4, 11] was 0%, the pest or weed control at 125 g/ha [4, 12] was 0% and the pest or weed control at 250 g/ha [4, 12] was 0%. It also gave a pest or weed control at 500 g/ha ([4]; post-emergence, Postemergence, 500 g ai/ha, scale 0 to 100, read-out: Plant response rating, Bermudagrass) of 0%.

With `COC(=O)c1nc(C2CC2)nc(N)c1Cl` [Compound 9, methyl 6-amino-5-chloro-2-cyclopropyl-4-pyrimidinecarboxylate] the plant injury at 31 g/ha ([1]; post-emergence, Postemergence, read-out: Plant response rating (scale of 0 to 100), Soybean) was 95%, the plant injury at 62 g/ha [1, 5] was 100% and the plant injury at 125 g/ha [1, 5] was 100%. It also gave a plant injury at 250 g/ha [1, 6] of 100%, a plant injury at 31 g/ha [1, 13] of 100% and a plant injury at 62 g/ha [1, 13] of 100%. The plant injury at 125 g/ha [1, 14] was 100%, the plant injury at 250 g/ha [1, 14] was 100% and the pest or weed control at 125 g/ha [2, 7] was 75%. The pest or weed control at 31 g/ha ([2]; post-emergence, Postemergence, read-out: Plant response rating (scale of 0 to 100), Foxtail, Giant) was 60%, the pest or weed control at 62 g/ha [2, 7] was 65% and the pest or weed control at 250 g/ha [2, 8] was 80%. For the same compound, the pest or weed control at 31 g/ha [2, 15] was 0%, the pest or weed control at 62 g/ha [2, 15] was 0% and the pest or weed control at 125 g/ha [2, 16] was 75%. It also gave a pest or weed control at 250 g/ha [2, 16] of 80%, a pest or weed control at 31 g/ha ([3]; post-emergence, Postemergence, read-out: Plant response rating (scale of 0 to 100), Johnsongrass) of 55% and a pest or weed control at 62 g/ha [3, 9] of 65%. For the same compound, the pest or weed control at 125 g/ha [3, 9] was 80%, the pest or weed control at 250 g/ha [3, 10] was 85% and the pest or weed control at 31 g/ha [3, 17] was 15%. For the same compound, the pest or weed control at 62 g/ha [3, 17] was 45%, the pest or weed control at 125 g/ha [3, 18] was 65% and the pest or weed control at 250 g/ha [3, 18] was 90%. The pest or weed control at 31 g/ha ([4]; post-emergence, Postemergence, read-out: Plant response rating (scale of 0 to 100), Bermudagrass) was 60%, the pest or weed control at 62 g/ha [4, 11] was 65% and the pest or weed control at 125 g/ha [4, 12] was 70%. The pest or weed control at 250 g/ha [4, 12] was 80%, the pest or weed control at 31 g/ha [4, 19] was 100% and the pest or weed control at 62 g/ha [4, 19] was 100%. The pest or weed control at 125 g/ha [4, 20] was 100% and the pest or weed control at 250 g/ha [4, 20] was 100%.
